Patent US6376224B1, “Pharmaceutical compositions for eliminating membrane-mediated cell resistance” (Deutsches Krebsforschungszentrum Stiftung des Offentlichen …, priority 1997, dated 2002)
Like-named read-outs stand apart in the source and are kept apart here. Values belong to the compound of their own block, whether it stands above or below them.

Key:
[1] = system: mouse ascites cells (strain HD34K); assay: Growth inhibition of chemosensitive mouse ascites cells HD34K after drug incubation and laser exposure; format: cell-based; conditions: HD34K (w.t.), 5 min incubation, argon laser 1 min, 3 days culture; for IC50: read-out: 50% inhibitory concentration (cell growth)
Method: (§1) Chemosensitive mouse ascites cells (strain HD34K) were compared with their variant (strain SR) which distinuishes itself by P-glycoprotein-mediated multi-chemoresistance. The chemoresistance of the SR cells developed spontaneously. The mouse ascites cells were suspended in fresh cell culture medium before the experiment started.
(§2) All of the experiments were carried out under flavin-protecting test conditions (Granzow et al., Cancer Res. 55, 4837-4843, (1995)). Freshly prepared cell suspensions were previously incubated at 36.5° C. for 15 minutes. Then, the cells were incubated with graded concentrations of vinblastin and napavin (photoactivity-labeled cytostatic agent). […] The mouse ascites cells were incubated with these pharmacetuical agents for five minutes. The human tumor cells were incubated for ten minutes. Then, the cell suspensions were transferred by pipetting into plastic dishes or trays and exposed using an argon laser (457.8 nm, 48 mW/cm^2) at room temperature for 1 minute. Thereafter, the cells were washed with fresh cell culture medium twice and cultured in 24-well multidishes or multitrays for three days. At the end of the experiment, cell growth was measured and the 50% inhibitory concentration of the cytostatic agents vinblastin and napavin was determined graphically as usual.

[2] = system: mouse ascites cells (strain SR, P-glycoprotein-mediated multi-chemoresistance); assay: Growth inhibition of multi-chemoresistant mouse ascites cells SR after drug incubation and laser exposure; format: cell-based; conditions: for IC50: read-out: 50% inhibitory concentration (cell growth); for 50% growth inhibition concentration in SR relative to wild-type (HD34K) concentration: absence of verapamil
Method: as §1, §2

[3] = system: KBC5-8 variant (P-glycoprotein-mediated multi-chemoresistance); assay: Growth inhibition of multi-chemoresistant KBC5-8 cells after drug incubation and laser exposure; format: cell-based, human; conditions: read-out: 50% inhibitory concentration (cell growth)
Method: (§3) In addition, chemosensitive KB cells (human carcinoma cells) were compared with their chemoresistant KBC5-8 variant. The multi-chemoresistance of the latter is also P-glycoprotein-mediated and was induced experimentally by colchicine addition to the cell culture medium. Before the experiment started, the human carcinoma cells were typsinized and suspended in fresh cell culture medium.
as §2, with “Then,” for “All of the experiments were carried out under flavin-protecting test conditions (Granzow et al., Cancer Res. 55, 4837-4843, (1995)). Freshly prepared cell suspensions were previously incubated at 36.5° C. for 15 minutes. Then,”

[4] = system: KB cells (human carcinoma cells); assay: Growth inhibition of chemosensitive KB cells after drug incubation and laser exposure; format: cell-based; conditions: for IC50: KB (w.t.), 10 min incubation, 3 days culture, read-out: 50% inhibitory concentration (cell growth)
Method: as §3
as §2, with “Then,” for “All of the experiments were carried out under flavin-protecting test conditions (Granzow et al., Cancer Res. 55, 4837-4843, (1995)). Freshly prepared cell suspensions were previously incubated at 36.5° C. for 15 minutes. Then,”

[5] = no verapamil, argon laser 457.8 nm 1 min

- IC50 ([4]; Homo sapiens, KB, + 1 μM verapamil, argon laser 1 min): 0.18 µM
- IC50 ([4]; Homo sapiens, KB, no verapamil, argon laser 457.8 nm 1 min): 0.1 to 0.2 µM
- IC50 [4, 5]: 0.16 µM
Compound: CC[C@]1(O)C[C@@H]2CN(CCc3c([nH]c4ccccc34)[C@@](C(=O)OC)(c3cc4c(cc3OC)N(C)[C@H]3[C@@](O)(C(=O)OC)[C@H](OC(C)=O)[C@]5(CC)C=CCN6CC[C@]43[C@@H]65)C2)C1 [VLB, vinblastin, reference compound]
- 50% inhibitory concentration (cell growth) ([1]; + 1 μM verapamil): insignificantly higher
- IC50 ([1]; Mus musculus, + 1 μM verapamil): 0.75 µM
- IC50 ([1]; Mus musculus, no verapamil): 0.66 µM
- IC50 ([2]; Mus musculus): 7 µM
- 50% growth inhibition concentration in SR relative to wild-type (HD34K) concentration [2]: about 10 times
- IC50 ([3]; Homo sapiens): 27 µM

- IC50 ([4]; + 1 μM verapamil, argon laser 1 min): 0.15 µM
- IC50 [4, 5]: 0.16 µM
Compound: napavin
- 50% inhibitory concentration (cell growth) ([1]; + 1 μM verapamil): slightly less
- IC50 ([1]; + 1 μM verapamil): 0.33 µM
- IC50 ([1]; no verapamil, listed as napavin): ~0.4 µM
- IC50 ([1]; no verapamil): 0.43 µM
- IC50 ([2]; SR (mdr), + 1 μM verapamil, 5 min incubation, argon laser 1 min, 3 days culture): 0.9 µM
- IC50 ([2]; SR (mdr), + 2 μM verapamil, 5 min incubation, argon laser 1 min, 3 days culture): 0.6 µM
- IC50 ([2]; SR (mdr), no verapamil, 5 min incubation, argon laser 1 min, 3 days culture): 4.75 µM
- 50% growth inhibition concentration in SR relative to wild-type (HD34K) concentration [2]: 10 times
- Inhibitory concentrations SR versus wild-type HD34K ([2]; with 1 μM verapamil): no longer differ significantly
- Inhibitory concentrations SR versus wild-type HD34K ([2]; with 2 μM verapamil): identical
- IC50 ([3]; KBC5-8 (mdr), + 1 μM verapamil, 10 min incubation, argon laser 1 min, 3 days culture): 1 µM
- IC50 ([3]; KBC5-8 (mdr), + 2 μM verapamil, 10 min incubation, argon laser 1 min, 3 days culture): 0.35 µM
- IC50 ([3]; KBC5-8 (mdr), no verapamil, 10 min incubation, argon laser 1 min, 3 days culture): 3.8 µM

Compound: COc1ccc(CCN(C)CCCC(C#N)(c2ccc(OC)c(OC)c2)C(C)C)cc1OC (stereo not shown) [VPM, verapamil]
- Influence of verapamil on concentration required for 50% growth suppression ([4]; KB cells, vinblastin and napavin): no influence
